The subject of one data set is lung A549 cell line. Also on record: method as in PMID 20460723. To be noted: cited from earlier work.
Details of data set [1]: method as in PMID 17851638. To be noted: cited from earlier work.
The test system of data set [2] is PC-3, Jurkat, HeLa, HepG2 and HT-29. On the set-up: method as in PMID 20494586. The note with it: range over PC-3, Jurkat, HepG2, HT-29, read-out: IC50 in the tested cancer cell lines; cited from earlier work.
Data set [3] relates to MCF-7/ADR cells (multidrug-resistant breast cancer). On the set-up: method as in PMID 25817774. The note with it: read-out: IC50 towards MCF-7/ADR cells; cited from earlier work.
The test system of data set [4] is MV-4-11 (biphenotypic B myelomonocytic leukaemia) cell line. Briefly: MTT antiproliferative assay on MV-4-11 cells. The note with it: Homo sapiens, MV4-11; MTT assay; Neg = negative in the concentration used. Type of data set: cell-based, human. As for the experimental part: (§1) The applied human cell lines such as MV-4-11 (biphenotypic B myelomonocytic leukaemia), A549 (lung adenocarcinoma), Du-145 (prostate), Hs294T (melanoma), MCF-7 (breast adenocarcinoma) and MCF-10A (normal mammary gland) were obtained from the American Type Culture Collection (ATCC, Rockville, MD, USA). The all cell lines are maintained at the Cell Culture Collection of the Institute of Immunology and Experimental Therapy (Wrocław, Poland). The cells were plated in 96-well plates (Sarstedt, Newton, MA, USA) at a density of 1 × 10^4 cells per well in 100 µL of appropriate culture medium overnight. Biphenotypic B myelomonocytic leukaemia (MV-4-11) cells were cultured in RPMI 1640 medium (Gibco, Scotland, UK) with GlutaMAX (Thermo-Fisher Scientific, Warsaw, Poland) adjusted to contain 1.0 mM sodium pyruvate (Sigma-Aldrich, Chemie GmbH, Steinheim, Germany). Human lung adenocarcinoma (A549) cells were cultured in mixture RPMI 1640 and Opti-MEM medium (Gibco, Scotland, UK) supplemented with GlutaMAX (ThermoFisher Scientific, Warsaw, Poland) and 2mM L-glutamine adjusted to contain 1.0 mM sodium pyruvate. Human prostate (Du-145) and human breast adenocarcinoma (MCF-7) cells were cultured in Eagle medium (IIET, Wrocław, Poland), supplemented with 2 mM L-glutamine adjusted to contain 1.0 mM sodium pyruvate. Human melanoma (Hs294T) cells were cultured in Dulbecco medium (Gibco, Scotland, UK) supplemented with 2 mM L-glutamine. The normal human mammary gland cells (MCF-10A) were cultured in Ham’s F-12 medium containing 2 mM L-glutamine, 5% horse serum, epidermal growth factor EGF (100 μL/100 mL of medium), hydrocortisone (1 mL/ 100 mL of medium), insulin (100 μL/100 mL of medium) and cholera toxin (0.1 mL/100 mL of medium). All applied culture media except MCF-10A were supplemented with 10% of FBS (MV-4-11 cultured with FBS derived from Sigma-Aldrich, Chemie GmbH, Steinheim, Germany, the other cell lines FBS HyClone Thermo-Fisher Scientific, Warsaw, Poland) and streptomycin (100 µg/mL), penicillin (100 U/mL) (both from Polfa, Tarchomin, Poland). The tested cell lines were grown at 37 °C in humid atmosphere saturated with 5% CO2. In our studies were used two assays for determination the cytotoxic activity in vitro of triterpene derivatives. By dissolving 1 mg of each tested compound in 100 µL of DMSO, stock solutions at a 10 mg/mL were obtained. Next, the stock solutions were diluted in appropriate culture medium to reach the required concentrations of compounds ranging from 0.1 to 100 µg/mL. The MTT assay was used for the cytotoxicity screening against biphenotypic B myelomonocytic leukaemia (MV-4-11). The SRB assay was performed for adherent cells such as A549, Du-145, Hs294T, MCF-7 and MCF-10A. Both assays were carried as described by Wietrzyk et al.. The triterpenes in given concentration were examined in triplicates in each experiment, which was repeated 3 times. The results of anticancer activity in vitro were presented as an IC50 in µM. Cisplatin and betulin 1 were used as reference substances.

The test system of data set [5] is A549 (lung adenocarcinoma). Briefly: SRB antiproliferative assay on A549 cells. Type of data set: cell-based, human. The note with it: Homo sapiens, A549. As for the experimental part: as §1
In the next data set the test system is Du-145 (prostate). Briefly: SRB antiproliferative assay on Du-145 cells. In kind it is cell-based, human. As for the experimental part: as §1
The subject of a further data set is Hs294T (melanoma). Briefly: SRB antiproliferative assay on Hs294T cells. Type of data set: cell-based, human. As for the experimental part: as §1
The subject of data set [6] is MCF-7 (breast adenocarcinoma). Briefly: SRB antiproliferative assay on MCF-7 cells. Type of data set: cell-based, human. As for the experimental part:
as §1

Data set [7] has as its system MCF-10A (normal mammary gland). Briefly: SRB antiproliferative assay on MCF-10A cells. In kind it is cell-based, human. To be noted: Homo sapiens, MCF-10A, Neg = negative in the concentration used. As for the experimental part:
as §1

Data set [8] has as its system A549, Du-145, Hs294T, MCF-7 and MCF-10A. Description: SRB antiproliferative assay, ranges over the cell line panel. Type of data set: cell-based. To be noted: Homo sapiens. As for the experimental part:
The applied human cell lines such as MV-4-11 (biphenotypic B myelomonocytic leukaemia), A549 (lung adenocarcinoma), Du-145 (prostate), Hs294T (melanoma), MCF-7 (breast adenocarcinoma) and MCF-10A (normal mammary gland) were obtained from the American Type Culture Collection (ATCC, Rockville, MD, USA). The all cell lines are maintained at the Cell Culture Collection of the Institute of Immunology and Experimental Therapy (Wrocław, Poland). The cells were plated in 96-well plates (Sarstedt, Newton, MA, USA) at a density of 1 × 10^4 cells per well in 100 µL of appropriate culture medium overnight. Biphenotypic B myelomonocytic leukaemia (MV-4-11) cells were cultured in RPMI 1640 medium (Gibco, Scotland, UK) with GlutaMAX (Thermo-Fisher Scientific, Warsaw, Poland) adjusted to contain 1.0 mM sodium pyruvate (Sigma-Aldrich, Chemie GmbH, Steinheim, Germany). Human lung adenocarcinoma (A549) cells were cultured in mixture RPMI 1640 and Opti-MEM medium (Gibco, Scotland, UK) supplemented with GlutaMAX (ThermoFisher Scientific, Warsaw, Poland) and 2mM L-glutamine adjusted to contain 1.0 mM sodium pyruvate. Human prostate (Du-145) and human breast adenocarcinoma (MCF-7) cells were cultured in Eagle medium (IIET, Wrocław, Poland), supplemented with 2 mM L-glutamine adjusted to contain 1.0 mM sodium pyruvate. […]

The mark [9] stands for this setting: SI = IC50 for normal mammary gland (MCF-10A)/IC50 on tumour cell line.

Molecules are shown by their SMILES. Converted amounts (≈) assume the structure as drawn. Read-outs that look alike come from different tables or passages of the source.

Take `C=C(C)[C@@H]1CC[C@]2(C(=O)O)CC[C@]3(C)[C@H](CC[C@@H]4[C@@]5(C)CC[C@H](O)C(C)(C)[C@@H]5CC[C@]43C)[C@@H]12` [betulinic acid]: in the data set on lung A549 cell line, the “IC50 against lung A549 cell line” value is on record as 8.4 µg/mL (≈ 18.4 µM). For the same compound, in data set [1], the water solubility was below 1 µM. The results for the IC50 in [2] and in data set [3] were 12.8 to 36.4 µM and 38.5 µM, respectively.
`C=C(C)C1CC[C@]2(CO)CC[C@]3(C)C(CCC4[C@@]5(C)CC[C@H](OC(=O)C#CC)C(C)(C)C5CC[C@]43C)C12` (stereo partly drawn) [Compound 9, 3-(2-Butynoyl)betulin]: the IC50 in [4] worked out at 4.5 ± 1.7 µM; in data set [5] it was 83.5 ± 25.3 µM; with Du-145 (prostate) (Homo sapiens, DU-145, SRB assay) it was 7.3 ± 0.8 µM; in the data set on Hs294T (melanoma) (Homo sapiens, Hs 294T, SRB assay) it was 10.6 ± 4.3 µM; in data set [6] (Homo sapiens, MCF7, SRB assay), 10.4 ± 5.7 µM; in [7], 71.7 ± 8.6 µM. Moreover, the IC50 in [8] (range over A549, Du-145, Hs294T, MCF-7, MCF-10A, read-out: IC50 against the tested cell lines) was 7.3 to 83.5 µM; in data set [8] (range over the three cell lines, read-out: IC50 towards Du-145, MCF-7 and Hs294T cells), 7.3 to 10.6 µM. Also, in the data set on Du-145 (prostate) (setting [9]), the “Selectivity Index (SI) towards Du-145” value was 9.82. In addition, in the data set with Hs294T (melanoma) (setting [9]), the “Selectivity Index (SI) towards Hs294T” value stood at 6.76. The “Selectivity Index (SI) towards MCF-7” value in data set [6] (setting [9]) stood at 6.89.

The values are drawn from paper PMC6471197, “Biological Activity and In Silico Study of 3-Modified Derivatives of Betulin and Betulinic Aldehyde” (International Journal of Molecular Sciences, 2019).
